Values quoted from earlier work, collected in US20250205506A1, “Treatment of viral infection” (priority 2023, published 2025).

Tests used:
[1] = test system: recurrent herpes labialis; conditions: for Reduction of healing time: tablets, otherwise healthy people
herpes zoster = conditions: intravenously administered; golden light (565 nm yellow + 630 nm red) or red light to the affected area
herpes infections = conditions: orally administered; red light from a HeNe laser

| Structure (SMILES) | Reduction of healing time [1] | Preventative treatment of herpes ([1]; taken once daily) | Combined effect with light compared to acyclovir alone (herpes zoster) | Combined effect with red light compared to acyclovir alone (herpes infections) |
| --- | --- | --- | --- | --- |
| CC(C)[C@H](N)C(=O)OCCOCn1cnc2c(=O)[nH]c(N)nc21 [valacyclovir] | reduce healing time by about one day | effective preventative treatment for herpes reducing frequency and severity of outbreaks | – | – |
| CC(=O)OCC(CCn1cnc2cnc(N)nc21)COC(C)=O [famciclovir] | reduce healing time by about one day | – | – | – |
| Nc1nc2c(ncn2COCCO)c(=O)[nH]1 [acyclovir, 9-(2-hydroxyethoxymethyl) guanine] | reduce healing time by about one day | – | improvement over acyclovir alone | improvements over acyclovir alone |
